Measured values published in ChEMBL document CHEMBL4418305, “Alkyl-, acyl-, urea-, and aza-uracil sulfide:quinone oxidoreductase inhibitors” (2017).

Legend:
[1] = target: T1, Sulfide:quinone oxidoreductase, mitochondrial (Homo sapiens, UniProt Q9Y6N5); assay: Inhibition of SQOR (unknown origin) at 10 uM using sodium sulfide, sodium sulfite and coenzyme Q1 by UV absorbance method relative to control
Target sequence in this assay (Q9Y6N5 whole entry, looked up): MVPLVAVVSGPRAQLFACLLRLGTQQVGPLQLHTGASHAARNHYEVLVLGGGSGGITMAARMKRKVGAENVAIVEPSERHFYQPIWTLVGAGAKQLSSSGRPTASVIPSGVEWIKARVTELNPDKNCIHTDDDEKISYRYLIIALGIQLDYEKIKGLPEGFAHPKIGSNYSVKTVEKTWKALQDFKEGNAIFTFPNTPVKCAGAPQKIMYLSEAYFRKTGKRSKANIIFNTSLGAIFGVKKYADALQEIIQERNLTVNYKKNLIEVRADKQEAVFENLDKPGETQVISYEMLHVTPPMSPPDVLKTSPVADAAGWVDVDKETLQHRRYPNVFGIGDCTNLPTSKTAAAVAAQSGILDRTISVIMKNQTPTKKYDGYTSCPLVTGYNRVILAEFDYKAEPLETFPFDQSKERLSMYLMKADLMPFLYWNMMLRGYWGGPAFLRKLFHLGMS

[2] = target: T1, Sulfide:quinone oxidoreductase, mitochondrial; assay: Inhibition of SQOR (unknown origin) using sodium sulfide, sodium sulfite and coenzyme Q1 by UV absorbance method
Target sequence in this assay (Q9Y6N5 whole entry): as the sequence (Q9Y6N5 whole entry, looked up) above

Row | Molecule | inhibition [1] | IC50 [2] | pIC50 [2]
1 | O=c1c(F)cn(CCc2ccccc2)c(=O)n1CCc1ccccc1 | 10 to 50% |  | 
2 | CCCCCCCCn1cc(F)c(=O)n(CCCCCCCC)c1=O | 10 to 50% | < 20 µM | 
3 | CCCCCCn1cc(F)c(=O)n(CCCCCC)c1=O | > 50% | < 20 µM | 
4 | CC(C)CCCn1cc(F)c(=O)n(CCCC(C)C)c1=O | 10 to 50% |  | 
5 | CCCCCCCC(=O)n1nc(C)c(=O)[nH]c1=O | 10 to 50% | 20 to 100 µM | 
6 | AUROTHIOGLUCOSE [listing 1 of 2 here] | 95 to 100% |  | 
7 | AUROTHIOGLUCOSE [listing 2 of 2 here] |  | 0.925 to 0.93 µM | 6.034
8 | CCCCCn1cc(F)c(=O)n(CCCCC)c1=O | > 50% | < 20 µM | 
9 | CCCCCCCC(=O)n1c(I)cc(=O)[nH]c1=O | 10 to 50% | < 20 µM | 
10 | CCCCCCNC(=O)n1cc(F)c(=O)[nH]c1=O [CARMOFUR] | 10 to 50% | 20 to 100 µM | 
11 | CCCCCC(=O)n1nc(Br)c(=O)[nH]c1=O | 10 to 50% | < 20 µM | 
12 | CCCCCCC(=O)n1cc(F)c(=O)n(C)c1=O | 10 to 50% |  | 
13 | CCCCCCCCNC(=O)n1cc(F)c(=O)[nH]c1=O | 10 to 50% | < 20 µM | 
14 | CCCCCCCC(=O)n1cc(Cl)c(=O)[nH]c1=O | 10 to 50% |  | 
15 | CCCCCCCCCCCC(=O)n1nc(Br)c(=O)[nH]c1=O | > 50% |  | 

Second part, the molecule after the results:

Row | inhibition [1] | IC50 [2] | pIC50 [2] | Molecule
16 | 10 to 50% | 20 to 100 µM |  | CCCCCCCC(=O)n1cc(Br)c(=O)[nH]c1=O
17 | 10 to 50% | < 20 µM |  | CCCCCCCC(=O)n1c(C)c(Br)c(=O)[nH]c1=O
18 | > 50% | 100 to 500 µM |  | CCCCCCCCCC(=O)n1nc(Br)c(=O)[nH]c1=O
19 | > 50% | < 20 µM |  | O=C(CCC1CCCC1)n1nc(Br)c(=O)[nH]c1=O
20 | 10 to 50% | < 20 µM |  | CCCCCCCC(=O)n1c(Cl)cc(=O)[nH]c1=O
21 | 10 to 50% |  |  | O=c1c(F)cn(CCC2CCCCC2)c(=O)n1CCC1CCCCC1
22 | 10 to 50% |  |  | O=C(c1ccccc1)n1nc(Br)c(=O)[nH]c1=O
23 | 6% |  |  | CCCNC(=O)n1cc(F)c(=O)[nH]c1=O
24 | > 50% |  |  | CCCCCCCCCCCCCC(=O)n1nc(Br)c(=O)[nH]c1=O
25 | 10 to 50% |  |  | CCCCCn1c(Cl)cc(=O)n(CCCCC)c1=O
26 | 10 to 50% |  |  | O=C(NCc1ccccc1)n1cc(F)c(=O)[nH]c1=O
27 | 10 to 50% |  |  | CC(C)C(=O)n1nc(Br)c(=O)[nH]c1=O
28 | > 50% | < 20 µM |  | CCCCCCCC(=O)n1nc(Br)c(=O)[nH]c1=O
29 | > 50% | < 20 µM |  | O=C(C1CCCCC1)n1nc(Br)c(=O)[nH]c1=O
30 | 7% |  |  | O=C(NCCc1ccccc1)n1cc(F)c(=O)[nH]c1=O
31 | 3% |  |  | CCCCCCCC(=O)n1cc(F)c(=O)[nH]c1=O
32 | 10 to 50% | < 20 µM |  | CCCCCCCCn1c(C)c(F)c(=O)n(CCCCCCCC)c1=O
33 | > 50% | < 20 µM |  | O=C(CC1CCCCC1)n1nc(Br)c(=O)[nH]c1=O
34 | > 50% | < 20 µM |  | CCCCCn1c(C)c(F)c(=O)n(CCCCC)c1=O
35 | > 50% | < 20 µM |  | CCCCCCCn1cc(F)c(=O)n(CCCCCCC)c1=O
36 | > 50% | < 20 µM |  | CCCCCCCCNC(=O)n1cc(Cl)c(=O)[nH]c1=O
